Experimental findings from patent US9834559B2, “4-Amino-6-phenyl-5,6-dihydroimidazo[1,5-a]pyrazin-3(2H)-one derivatives as inhibitors of beta-secretase (BACE)” (Janssen Pharmaceutica NV, priority 2013, dated 2017) are described below.

Experiment [1] deals with recombinant BACE1 protein (Homo sapiens, UniProt P56817). Kind of experiment: BACE1 biochemical FRET based assay. As to conditions: BACE1 0.04 μg/ml, 20 μM substrate, pH 5.0, 450 min; read-out: Biochemical FRET based assay pIC50 (converted). The source says:
(§1) This assay is a Fluorescence Resonance Energy Transfer Assay (FRET) based assay. The substrate for this assay is an APP derived 13 amino acids peptide that contains the ‘Swedish’ Lys-Met/Asn-Leu mutation of the amyloid precursor protein (APP) beta-secretase cleavage site. This substrate also contains two fluorophores: (7-methoxycoumarin-4-yl) acetic acid (Mca) is a fluorescent donor with excitation wavelength at 320 nm and emission at 405 nm and 2,4-Dinitrophenyl (Dnp) is a proprietary quencher acceptor. […] Upon cleavage by BACE1, the fluorophore Mca is separated from the quenching group Dnp, restoring the full fluorescence yield of the donor. The increase in fluorescence is linearly related to the rate of proteolysis.
Briefly in a 384-well format recombinant BACE1 protein in a final concentration of 0.04 μg/ml is incubated for 450 minutes at room temperature with 20 μM substrate in incubation buffer (50 mM Citrate buffer pH 5.0, 0.05% PEG) in the presence of compound or DMSO. Next the amount of proteolysis is directly measured by fluorescence measurement (excitation at 320 nm and emission at 405 nm) at different incubation times (0, 30, 60, 90, 120 and 450 min). For every experiment a time curve (every 30 min between 0 min and 120 min) is used to determine the time where we find the lowest basal signal of the high control. The signal at this time (Tx) is used to subtract from the signal at 450 min. Results are expressed in RFU, as difference between T450 and Tx.
(§2) A best-fit curve is fitted by a minimum sum of squares method to the plot of % Controlmin versus compound concentration. From this an IC50 value (inhibitory concentration causing 50% inhibition of activity) can be obtained. • LC=Median of the low control values • =Low control: Reaction without enzyme • HC=Median of the High control values • =High Control: Reaction with enzyme • % Effect=100−[(sample−LC)/(HC−LC)*100] • % Control=(sample/HC)*100 • % Controlmin=(sample−LC)/(HC−LC)*100

Experiment [2] has as its system Abeta total produced and secreted by human neuroblastoma SKNBE2 cells expressing hAPP695. The experiment can be described thus: Cellular αLisa assay in SKNBE2 cells, Abeta total. It counts as cell-based. As to conditions: 18 hours incubation, read-out: Cellular αLisa assay in SKNBE2 cells Abetatotal pIC50 (converted). How it is done:
In two αLisa assays the levels of Abeta total and Abeta 1-42 produced and secreted into the medium of human neuroblastoma SKNBE2 cells are quantified. The assay is based on the human neuroblastoma SKNBE2 expressing the wild type Amyloid Precursor Protein (hAPP695). The compounds are diluted and added to these cells, incubated for 18 hours and then measurements of Abeta 1-42 and Abeta total are taken. Abeta total and Abeta 1-42 are measured by sandwich αLisa. αLisa is a sandwich assay using biotinylated antibody AbN/25 attached to streptavidin coated beads and antibody Ab4G8 or cAb42/26 conjugated acceptor beads for the detection of Abeta total and Abeta 1-42 respectively. In the presence of Abeta total or Abeta 1-42, the beads come into close proximity. The excitation of the donor beads provokes the release of singlet oxygen molecules that trigger a cascade of energy transfer in the acceptor beads, resulting in light emission. Light emission is measured after 1 hour incubation (excitation at […] and emission at 615 nm).
A best-fit curve is fitted by a minimum sum of squares method to the plot of % Controlmin versus compound concentration. From this an IC50 value (inhibitory concentration causing 50% inhibition of activity) can be obtained. • LC=Median of the low control values • =Low control: cells preincubated without compound, without biotinylated Ab in the αLisa • HC=Median of the High control values • =High Control: cells preincubated without compound • % Effect=100−[(sample−LC)/(HC−LC)*100] • % Control=(sample/HC)*100 • % Controlmin=(sample−LC)/(HC−LC)*100

Experiment [3] addresses T1, recombinant BACE2 protein (Homo sapiens, UniProt Q9Y5Z0).
T1 sequence (Q9Y5Z0 63-518): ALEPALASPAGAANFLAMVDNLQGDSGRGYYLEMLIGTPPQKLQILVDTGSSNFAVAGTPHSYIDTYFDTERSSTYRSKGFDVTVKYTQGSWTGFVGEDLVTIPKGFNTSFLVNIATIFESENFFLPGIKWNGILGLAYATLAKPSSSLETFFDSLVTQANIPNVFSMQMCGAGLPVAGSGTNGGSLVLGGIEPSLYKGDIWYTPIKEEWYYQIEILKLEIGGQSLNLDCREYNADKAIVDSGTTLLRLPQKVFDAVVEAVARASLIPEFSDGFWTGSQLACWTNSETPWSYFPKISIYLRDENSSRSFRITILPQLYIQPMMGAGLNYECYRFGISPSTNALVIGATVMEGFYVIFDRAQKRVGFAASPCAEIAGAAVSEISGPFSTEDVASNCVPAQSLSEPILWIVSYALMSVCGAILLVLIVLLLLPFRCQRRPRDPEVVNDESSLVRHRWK
The experiment can be described thus: BACE2 biochemical FRET based assay. As to conditions: BACE2 0.4 μg/ml, 10 μM substrate, pH 5.0, 450 min; read-out: BACE2 Biochemical FRET based assay pIC50 (converted).
Description: as §1, with “assay” for “assay is an APP derived 13 amino acids peptide that”, “the beta-secretase,” for “BACE1,”
Briefly in a 384-well format recombinant BACE2 protein in a final concentration of 0.4 μg/ml is incubated for 450 minutes at room temperature with 10 μM substrate in incubation buffer (50 mM Citrate buffer pH 5.0, 0.05% PEG, no DMSO) in the absence or presence of compound. Next the amount of proteolysis is directly measured by fluorescence measurement at T=0 and T=450 (excitation at 320 nm and emission at 405 nm). Results are expressed in RFU (Relative Fluorescence Units), as difference between T450 and T0.
as §2

Chain of recombinant BACE1 protein (P56817 46-501): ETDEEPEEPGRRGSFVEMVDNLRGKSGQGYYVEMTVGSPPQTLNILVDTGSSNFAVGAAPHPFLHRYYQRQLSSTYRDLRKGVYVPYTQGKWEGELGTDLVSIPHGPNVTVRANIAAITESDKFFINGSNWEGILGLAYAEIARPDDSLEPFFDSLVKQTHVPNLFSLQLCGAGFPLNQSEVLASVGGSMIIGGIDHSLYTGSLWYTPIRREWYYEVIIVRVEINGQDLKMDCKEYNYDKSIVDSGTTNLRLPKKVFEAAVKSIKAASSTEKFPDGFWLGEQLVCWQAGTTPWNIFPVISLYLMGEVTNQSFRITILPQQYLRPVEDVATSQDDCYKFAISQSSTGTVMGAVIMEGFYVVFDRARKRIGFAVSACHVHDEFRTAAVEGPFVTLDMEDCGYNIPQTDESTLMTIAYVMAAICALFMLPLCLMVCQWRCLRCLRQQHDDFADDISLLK

On to `Cn1cc2n(c1=O)C[C@@](C)(c1cc(NC(=O)c3ccc(C#N)cn3)ccc1F)N=C2N` [Compound 1, N-{3-[(6R)-8-Amino-2,6-dimethyl-3-oxo-2,3,5,6-tetrahydroimidazo[1,5-a]pyrazin-6-yl]-4-fluorophenyl}-5-cyanopyridine-2-carboxamide], for which the IC50 in experiment [1] was 2.95 nM; in experiment [2], 11.5 nM; in experiment [3], 19.5 nM.
Regarding `Cn1cc2n(c1=O)C[C@@](C)(c1cc(NC(=O)c3ccc(Cl)cn3)ccc1F)N=C2N` [Compound 4, N-{3-[(6R)-8-amino-2,6-dimethyl-3-oxo-5H-imidazo[1,5-a]pyrazin-6-yl]-4-fluoro-phenyl}-5-chloro-pyridine-2-carboxamide], the IC50 in experiment [1] was 3.98 nM; in experiment [2], 6.03 nM; in experiment [3] it was 4.37 nM.
For `Cc1nc(C(=O)Nc2ccc(F)c([C@]3(C)Cn4c(cn(C)c4=O)C(N)=N3)c2)co1` [Compound 3, N-{3-[(6R)-8-Amino-2,6-dimethyl-3-oxo-2,3,5,6-tetrahydroimidazo[1,5-a]pyrazin-6-yl]-4-fluorophenyl}-2-methyl-1,3-oxazole-4-carboxamide] the same measures were 9.55 nM, 52.5 nM and 6.61 nM.
